Measured values from the supplement of paper PMC10290057.
Structures can show the parent of a compound that is named as a salt.

Columns and labels:
HCT116 [1] = test: AC50 cell viability (CellTiter-Glo); higher = less potent; conditions: 48 h
HCT116 [2] = test: efficacy (fitted maximal change in viability relative to DMSO control); higher = less cytotoxic (negative = loss of viability); conditions: 48 h
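Throughout, for AC50 cell viability (CellTiter-Glo): HCT116 colorectal carcinoma cells screened at five concentrations per compound, luminescent viability scaled between DMSO wells and empty wells on each plate, curves fitted per compound.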
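Throughout, for efficacy (fitted maximal change in viability relative to DMSO control): Luminescence-based viability readout, five doses per compound, normalized against on-plate DMSO and empty-well controls, followed by dose-response curve fitting for every drug.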

Q: Which results are given for CC1=C(/C=C/C(C)=C/C=C/C(C)=C/C(=O)Nc2ccc(O)cc2)C(C)(C)CCC1 [Fenretinide]?
A: AC50 cell viability (HCT116 [1]): 23.5 µM; efficacy (HCT116 [2]): -84.3%

Q: What does the source list for Clc1ccc(C(Cn2ccnc2)OCc2ccc(Sc3ccccc3)cc2)c(Cl)c1 (centres undefined) [Fenticonazole nitrate]?
A: AC50 cell viability (HCT116 [1]): 20.9 µM; efficacy (HCT116 [2]): -90.5%

Q: CON(C)C(=O)N1/N=C(S[C@@]1(CCCN)C2=CC=CC=C2)/C3=CC(=CC=C3F)F [Filanesib] was tested. Which AC50 cell viability (HCT116 [1]) did it give?
A: 20.9 µM

Q: And the efficacy (HCT116 [2])?
A: -42.1%

Q: Which results are given for O=C(Nc1nc2cccc(-c3ccc(CN4CC[S+](=O)([O-])CC4)cc3)n2n1)C1CC1 [Filgotinib]?
A: AC50 cell viability (HCT116 [1]): 7.42 µM; efficacy (HCT116 [2]): -70.1%

Q: How did the AC50 cell viability (HCT116 [1]) turn out when CCCCCCCCc1ccc(CCC(N)(CO)CO)cc1 [Fingolimod hydrochloride] was run?
A: 20.9 µM

Q: And the efficacy (HCT116 [2])?
A: -105%

Q: CN1CC[C@H]([C@@H](O)C1)C2=C(O)C=C(O)C3=C2O\C(=C/C3=O)C4=CC=CC=C4Cl [Flavopiridol] was tested. Which AC50 cell viability (HCT116 [1]) did it give?
A: 0.186 µM

Q: What about the efficacy (HCT116 [2]) of the same compound?
A: -63.7%

Q: Which results are given for OC[C@H]1O[C@H](C[C@@H]1O)N2\C=C(F)/C(=O)NC2=O [Floxuridine]?
A: AC50 cell viability (HCT116 [1]): 0.235 µM; efficacy (HCT116 [2]): -82.9%

Q: With COC(=O)Nc1nc2cc(C(=O)c3ccc(F)cc3)ccc2[nH]1 [Flubendazole] as the compound, how does the AC50 cell viability (HCT116 [1]) read?
A: 0.468 µM

Q: What about the efficacy (HCT116 [2]) of the same compound?
A: -54.4%

Q: Nc1nc(F)nc2c1ncn2[C@@H]1O[C@H](COP(=O)(O)O)[C@@H](O)[C@@H]1O [Fludarabine phosphate] was tested. Which AC50 cell viability (HCT116 [1]) did it give?
A: 7.42 µM

Q: What about the efficacy (HCT116 [2]) of the same compound?
A: -58.2%

Q: Which AC50 cell viability (HCT116 [1]) does the source give for Cc1ncc(NC(=O)c2ccc(CN3CCN(C)CC3)c(C(F)(F)F)c2)cc1Nc1nccc(-c2cccnc2)n1 [Flumatinib mesylate] here?
A: 18.6 µM

Q: And the efficacy (HCT116 [2])?
A: -95.8%

Q: Which results are given for NC\1=N\C(=O)N(\C=C1)[C@H]\2[C@H](O)[C@H](O)C(=C2F)\CO [Fluorocyclopentenylcytosine]?
A: AC50 cell viability (HCT116 [1]): 0.525 µM; efficacy (HCT116 [2]): -66.3%

Q: With F\C1=C\NC(=O)NC1=O [Fluorouracil] as the compound, how does the AC50 cell viability (HCT116 [1]) read?
A: 10.5 µM

Q: And the efficacy (HCT116 [2])?
A: -64.4%

Q: With OCCN1CCN(CCCN2c3ccccc3Sc3ccc(C(F)(F)F)cc32)CC1 [Fluphenazine hydrochloride] as the compound, how does the AC50 cell viability (HCT116 [1]) read?
A: 7.42 µM

Q: And the efficacy (HCT116 [2])?
A: -94.5%

Q: C[C@@H]1CC2C3C[C@H](F)C\4=C\C(=O)\C=C/[C@]4(C)[C@@]3(F)[C@@H](O)C[C@]2(C)[C@@]1(OC(=O)C5=CC=CO5)C(=O)SCF (some centres undefined) [Fluticasone furoate] was tested. Which AC50 cell viability (HCT116 [1]) did it give?
A: 20.9 µM

Q: What about the efficacy (HCT116 [2]) of the same compound?
A: -76.9%

Q: How did the AC50 cell viability (HCT116 [1]) turn out when CC(C)n1c(/C=C/[C@H](O)C[C@H](O)CC(=O)O)c(-c2ccc(F)cc2)c2ccccc21 [Fluvastatin] was run?
A: 9.34 µM

Q: And the efficacy (HCT116 [2])?
A: -71.8%

Q: With COc1cc2c(Oc3ccc(NC(=O)C4(C(=O)Nc5ccc(F)cc5)CC4)cc3F)ccnc2cc1OCCCN1CCOCC1 [Foretinib] as the compound, how does the AC50 cell viability (HCT116 [1]) read?
A: 5.9 µM

Q: And the efficacy (HCT116 [2])?
A: -101%

Q: What does the source list for COc1cc(Nc2ncc(F)c(Nc3ccc4c(n3)N(COP(=O)(O)O)C(=O)C(C)(C)O4)n2)cc(OC)c1OC [Fostamatinib]?
A: AC50 cell viability (HCT116 [1]): 18.6 µM; efficacy (HCT116 [2]): -70.2%

Q: For C[S+](=O)([O-])c1ccc(-c2nnc(/C=C/c3nnc(-c4ccc(C#N)cc4)o3)n2-c2ccccc2Cl)nc1 [G-007-LK], which AC50 cell viability (HCT116 [1]) is on record?
A: 14.8 µM

Q: And the efficacy (HCT116 [2])?
A: -48.4%

Q: What does the source list for CN(C)c1ccccc1CN1CCCN(Cc2ccccc2N(C)C)C1c1ccncc1 [GANT-61]?
A: AC50 cell viability (HCT116 [1]): 18.6 µM; efficacy (HCT116 [2]): -88.6%

Q: For O=C(Nc1ccnc(NC(=O)C2CC2)c1)c1c(Cl)cccc1Cl [GDC-046], which AC50 cell viability (HCT116 [1]) is on record?
A: 2.35 µM

Q: And the efficacy (HCT116 [2])?
A: -79.8%

Q: How did the AC50 cell viability (HCT116 [1]) turn out when CC1(C)OCCn2c1nc1c(N3CCOCC3)nc(-c3cnc(N)nc3)nc12 [GDC-0084] was run?
A: 0.833 µM

Q: What about the efficacy (HCT116 [2]) of the same compound?
A: -58.4%

Q: CC(C)n1ncnc1-c1cn2c(n1)-c1ccc(O[C@@H](C)C(N)=O)cc1OCC2 [GDC-0326] was tested. Which AC50 cell viability (HCT116 [1]) did it give?
A: 6.61 µM

Q: And the efficacy (HCT116 [2])?
A: -72.2%

Q: What does the source list for CCNC(=O)Nc1ccc(-c2nc3c(c(N4CCOC[C@@H]4C)n2)CCN(C2COC2)C3)cc1 [GDC-0349]?
A: AC50 cell viability (HCT116 [1]): 3.32 µM; efficacy (HCT116 [2]): -46.9%

Q: Which results are given for O=C(NOCCO)c1ccc2cncn2c1Nc1ccc(I)cc1F [GDC-0623]?
A: AC50 cell viability (HCT116 [1]): 11.8 µM; efficacy (HCT116 [2]): -43.9%

Q: For Cc1c(CN2CCN(C(=O)[C@H](C)O)CC2)sc2c(N3CCOCC3)nc(-c3cnc(N)nc3)nc12 [GDC-0980], which AC50 cell viability (HCT116 [1]) is on record?
A: 0.525 µM

Q: What about the efficacy (HCT116 [2]) of the same compound?
A: -57.1%

Q: What does the source list for CN(C)C1=C(Br)C=C(C=C1)C\2NC3=C(\C4=C2C(=O)CC(C)(C)C4)C5=CC=CC=C5C=C3 (centres undefined) [GLS-968]?
A: AC50 cell viability (HCT116 [1]): 9.34 µM; efficacy (HCT116 [2]): -31.2%

Q: With N#C/N=C(\NCCCCCCOc1ccc(Cl)cc1)Nc1ccncc1 [GMX-1778] as the compound, how does the AC50 cell viability (HCT116 [1]) read?
A: 0.0132 µM

Q: What about the efficacy (HCT116 [2]) of the same compound?
A: -93.3%

Q: What does the source list for COC1(c2sc3c(N4CCOCC4)nc(-c4cnc(N)nc4)nc3c2C)COC1 [GNE-317]?
A: AC50 cell viability (HCT116 [1]): 0.59 µM; efficacy (HCT116 [2]): -58.4%

Q: What does the source list for Cc1c(CN2CCN([S+](C)(=O)[O-])CC2)sc2c(N3CCOCC3)nc(-c3cnc(N)nc3)nc12 [GNE-477]?
A: AC50 cell viability (HCT116 [1]): 0.59 µM; efficacy (HCT116 [2]): -57.8%

Q: What does the source list for Cc1nc(N)ncc1-c1nc(N2CCOCC2)c2sc(C(C)(C)O)cc2n1 [GNE-490]?
A: AC50 cell viability (HCT116 [1]): 2.63 µM; efficacy (HCT116 [2]): -66.6%

Q: For CC(C)(O)c1cc2nc(-c3cnc(N)nc3)nc(N3CCOCC3)c2s1 [GNE-493], which AC50 cell viability (HCT116 [1]) is on record?
A: 0.833 µM

Q: What about the efficacy (HCT116 [2]) of the same compound?
A: -55.2%

Q: Which AC50 cell viability (HCT116 [1]) does the source give for O=C(NCc1ccc([S+](=O)([O-])c2cccc(C(F)(F)F)c2)cc1)c1cnc2[nH]ncc2c1 [GNE-618] here?
A: 0.0166 µM

Q: And the efficacy (HCT116 [2])?
A: -90.4%

Q: With N#Cc1ccnc(Nc2cc(C3CCN(C4COC4)CC3)cc(N3CCC(F)(F)C3)n2)c1 [GNE-3511] as the compound, how does the AC50 cell viability (HCT116 [1]) read?
A: 0.833 µM

Q: And the efficacy (HCT116 [2])?
A: -77.1%

Q: For CNc1nc(Nc2cnn([C@H]3CCN(C4COC4)C[C@@H]3F)c2Cl)ncc1C(F)(F)F [GNE-9605], which AC50 cell viability (HCT116 [1]) is on record?
A: 4.68 µM

Q: What about the efficacy (HCT116 [2]) of the same compound?
A: -51.4%

Q: NC(=O)c1cccc(-c2cc(Nc3ccc(OC(F)(F)F)cc3)ncn2)c1 [GNF-2] was tested. Which AC50 cell viability (HCT116 [1]) did it give?
A: 18.6 µM

Q: What about the efficacy (HCT116 [2]) of the same compound?
A: -97.5%

Q: For Cc1ccc(Nc2ncc3c(n2)N(C)C(=O)N(c2cc(NC(=O)c4cccc(C(F)(F)F)c4)ccc2C)C3)cn1 [GNF-7], which AC50 cell viability (HCT116 [1]) is on record?
A: 0.0332 µM

Q: What about the efficacy (HCT116 [2]) of the same compound?
A: -69.3%

Q: How did the AC50 cell viability (HCT116 [1]) turn out when Cc1ccc(NC(=O)Nc2cc(C(F)(F)F)ccc2F)cc1Nc1ccc2c(c1)NC(=O)/C2=C\c1ccc[nH]1 [GNF-5837] was run?
A: 14.8 µM

Q: What about the efficacy (HCT116 [2]) of the same compound?
A: -97.5%

Q: How did the AC50 cell viability (HCT116 [1]) turn out when NC1=NC(=C(C#N)C(=N1)N)N[C@@H](C2CC2)\C3=N\C4=C(C(=CC=C4F)Cl)C(=O)N3C5=CC=CN=C5 [GS-9901] was run?
A: 18.6 µM

Q: And the efficacy (HCT116 [2])?
A: -71%

Q: Which AC50 cell viability (HCT116 [1]) does the source give for O=C/1NC(=O)C(=C1C2=CN=C3C=CC=C[N]23)/C4=C[N]5CCN(CC6=C5C4=CC=C6)C(=O)N7CCOCC7 [GSK3 Inhibitor] here?
A: 9.34 µM

Q: And the efficacy (HCT116 [2])?
A: -85.7%

Q: With CC\1=C(C(\N=C(/N1)C2=CC(=NC=C2)Cl)C3=C(F)C=C(Cl)C=C3)/C(=O)NC4=C(F)C=C5[NH]N=CC5=C4 (centres undefined) [GSK-25] as the compound, how does the AC50 cell viability (HCT116 [1]) read?
A: 29.5 µM

Q: And the efficacy (HCT116 [2])?
A: -97.8%

Q: Which results are given for CCCC\1=C(/CNC(=O)C2=CC(=CC3=C2C=N[N]3C(C)C)C4=CC(=NC=C4)N5CCN(C)CC5)C(=O)NC(=C1)\C [GSK-343]?
A: AC50 cell viability (HCT116 [1]): 23.5 µM; efficacy (HCT116 [2]): -101%

Q: How did the AC50 cell viability (HCT116 [1]) turn out when COc1cc(C(=O)N2CC[C@@H](O)[C@@H](N)C2)cc2nc(-c3cc4ccccc4n3CC3CC3)n(C)c12 [GSK-484] was run?
A: 23.5 µM

Q: And the efficacy (HCT116 [2])?
A: -94.1%
